Source: patent US4918073A, “Diarylalkyl-substituted alkylamines and medicaments containing them” (Hoechst Aktiengesellschaft, priority 1986, dated 1990)
Where two headings read alike, the source gives them in different places.

How the values were obtained:
isolated guineapig heart = assay: coronary circulation on the isolated guineapig heart (Langendorff); conditions: Cavia porcellus, vs control hearts; for activation at 0.0005 mg: dose 0.5 μg via feed tube; for activation at 0.0001 mg: dose 0.1 μg via feed tube
Protocol: For this test, female heparinized (2.5 mg of heparin sodium intraperitoneally 1 hour before sacrifice) guineapigs (220-250 g) were sacrificed by a blow on the neck. Immediately after the thorax has been opened, cardiac arrest was induced by cooling the heart with icecold saline solution. The ascending aorta was catheterized and connected to a non-recirculating perfusion system (hydrostatic pressure 65 cm of H2 O) in accordance with the method of Langendorff. Exposure of the heart was folowed by a perfusion period of 30 minutes for adaptation of the heart to the isolated state. A modified Krebs-Henseleit bicarbonate solution (113.8 mM NaCl, 22.0 mM NaHCO3, 4.7 mM KCl, 1.2 mM KH2 PO4, 1.1 mM MgSO4 ×7 H2 O and 2.5 mM CaCl2 ×2 H2 O, equilibrated with 95% of O2 and 5% of CO2, pH 7.41, 38° C.) was used as the perfusate. Glucose (11 mM) and sodium pyruvate (2.0 mM) were added. The osmolality of the perfusate was kept constant by adjusting the amount of NaCl. The hearts were loaded with a resting voltage of 2 pond (p). The heart rate and contraction force were recorded isometrically and the equipment for this (Hellige GmbH, Freiburg, Germany) were calibrated to 2 p. The coronary flow was determined with the aid of a drop counter, 7 drops corresponding to 1 ml. The values stated are expressed as the percentage increase in coronary circulation after administration of the test substance in the stated dosage via a feed tube (0.1% strength solution in propanediol), based on control hearts without addition of the test substance. The following table contains some of the values measured:
(a) mean value of 28 measurements
(b) the values stated result from in each case two measurements.

[1] = molecular target: 3H-nitrendipine binding, membrane preparation from the cortex of the rat brain; assay: displacement of tritium-labeled nitrendipine from rat brain cortex membranes (calcium-antagonistic activity); conditions: 3H-nitrendipine 0.1 nM, TRIS buffer pH 7.4, 25° C., 60 minutes; read-out: IC50 (displacement of 50% of the radioactively labeled nitrendipine)
Protocol: This test was carried out in a membrane preparation obtained from the cortex of the rat brain and washed several times, the method described by R. J. Gould et al. (Proc. Natl. Acad. Sci. U.S.A. 79, 3656 [1982]) essentially being used. […] The membrane fractions were separated off by vacuum filtration over Whatman-GF/F glass fiber filters and the radioactivity was measured in a liquid scintillation counter. […] The IC50 value, i.e. the concentration of test substance which is capable of displacing 50% of the radioactively labeled nitrendipine, is determined as the characteristic parameter.

[2] = values from in each case two measurements, read-out: Increase in coronary circulation

Row | SMILES | IC50 [1] [nM] | other results
1 | CCOC(=O)c1ccc(OCCN2CCN(CCCC(c3ccc(F)cc3)c3ccc(F)cc3)CC2)cc1 [Example 70] |  | activation at 0.0005 mg (isolated guineapig heart; [2]): 36 to 52%
2 | Fc1ccc(C(CCCN2CCN(CCOc3cccc4ncccc34)CC2)c2ccc(F)cc2)cc1 [Example 28] | 65 | 
3 | Fc1ccc(C(CCCN2CCC(CCOc3cccc4cnccc34)CC2)c2ccc(F)cc2)cc1 [Example 32] | 12 | 
4 | Fc1ccc(C(CCCN2CCN(CCOc3ccccc3C(F)(F)F)CC2)c2ccc(F)cc2)cc1 [Example 67] |  | activation at 0.0001 mg (isolated guineapig heart; [2]): 5 to 21%; activation at 0.0005 mg (isolated guineapig heart; [2]): 23 to 35%
5 | Fc1ccc(C(CCCN2CCN(CCCCOc3cccc4cnccc34)CC2)c2ccc(F)cc2)cc1 [Example 22] | 85 | 
6 | Cc1ccc(OCCN2CCN(CCCC(c3ccc(F)cc3)c3ccc(F)cc3)CC2)cc1 [Example 17] | 12 | activation at 0.0001 mg (isolated guineapig heart; [2]): 14 to 17%; activation at 0.0005 mg (isolated guineapig heart; [2]): 33 to 38%
7 | CN(CCCC(c1ccc(F)cc1)c1ccc(F)cc1)C1CCN(CCOc2cccc3cnccc23)CC1 [Example 37] | 400 | 
8 | Fc1cccc(C(CCCN2CCN(CCOc3cccc4cnccc34)CC2)c2cccc(F)c2)c1 [Example 36] | 90 | 
9 | CC(=O)c1cccc(OCCN2CCN(CCCC(c3ccc(F)cc3)c3ccc(F)cc3)CC2)c1 [Example 64] | 19 | 
10 | Fc1ccc(C(CCCN2CCN(CCOc3ccc(C(F)(F)F)cc3)CC2)c2ccc(F)cc2)cc1 [Example 50] | 4 | activation at 0.0001 mg (isolated guineapig heart; mean value of 28 measurements, read-out: Increase in coronary circulation (mean value)): 38%
11 | O=C(O)C1CN(CCCC(c2ccc(F)cc2)c2ccc(F)cc2)CCN1CCOc1cccc2ccccc12 (centres unmarked) [Example 61] | 60 | 
12 | CC(C)(C)c1ccc(OCCN2CCN(CCCC(c3ccc(F)cc3)c3ccc(F)cc3)CC2)cc1 [Example 46] |  | activation at 0.0001 mg (isolated guineapig heart; [2]): 12 to 23%; activation at 0.0005 mg (isolated guineapig heart; [2]): 21 to 36%
13 | O=[N+]([O-])c1ccc(OCCN2CCN(CCCC(c3ccc(F)cc3)c3ccc(F)cc3)CC2)cc1 [Example 41] | 8.5 | 
14 | Fc1ccc(C(CCCN2CCN(CCOc3cccc4ccccc34)CC2)c2ccc(F)cc2)cc1 [Example 18, 1-[4,4-bis(4-fluorophenyl)butyl]-4-[2-(1-naphthyloxy)ethyl]piperazine] | 48 | 
15 | Fc1ccc(OCCN2CCN(CCCC(c3ccc(F)cc3)c3ccc(F)cc3)CC2)cc1 [Example 45] | 11 | activation at 0.0001 mg (isolated guineapig heart; [2]): 13 to 26%; activation at 0.0005 mg (isolated guineapig heart; [2]): 38 to 57%
16 | NC(=O)C1CN(CCOc2ccccc2)CCN1CCCC(c1ccc(F)cc1)c1ccc(F)cc1 (centres unmarked) [Example 56] | 180 | activation at 0.001 mg (isolated guineapig heart; dose 1.0 μg via feed tube, values from in each case two measurements, read-out: Increase in coronary circulation): 40 to 65%
17 | Fc1ccc(C(CCCN2CCN(CCOc3c(Cl)cccc3Cl)CC2)c2ccc(F)cc2)cc1 [Example 62] |  | activation at 0.0001 mg (isolated guineapig heart; [2]): 9 to 13%
18 | COc1ccc(OCCN2CCN(CCCC(c3ccc(F)cc3)c3ccc(F)cc3)CC2)cc1 [Example 42] |  | activation at 0.0005 mg (isolated guineapig heart; [2]): 20 to 29%
19 | Fc1ccc(C(CCCN2CCN(CCOC3CCCCC3)CC2)c2ccc(F)cc2)cc1 [Example 16, 1-[4,4-bis(4-fluorophenyl)butyl]-4-[(2-cyclohexoxy)-ethyl]piperazine] | 22 | 
20 | CC(=O)c1ccccc1OCCN1CCN(CCCC(c2ccc(F)cc2)c2ccc(F)cc2)CC1 [Example 66] | 12 | 

Now from value to molecule, other results behind:

Row | IC50 [1] [nM] | SMILES | other results
21 | 9 | CSc1ccc(OCCN2CCN(CCCC(c3ccc(F)cc3)c3ccc(F)cc3)CC2)cc1 [Example 75] | 
22 | 1 | Fc1ccc(C(CCCN2CCC(CCOc3cccc(C(F)(F)F)c3)CC2)c2ccc(F)cc2)cc1 [Example 74] | 
23 | 0.9 | Fc1ccc(C(CCCN2CCN(CCOc3cccc(C(F)(F)F)c3)CC2)c2ccc(F)cc2)cc1 [Example 68] | activation at 0.0001 mg (isolated guineapig heart; [2]): 20 to 29%
24 | 1.2 | Fc1ccc(C(CCCN2CCC(CCOc3ccccc3C(F)(F)F)CC2)c2ccc(F)cc2)cc1 [Example 73] | 
25 | 2 | Fc1ccc(C(CCCN2CCN(CCOc3cc(C(F)(F)F)cc(C(F)(F)F)c3)CC2)c2ccc(F)cc2)cc1 [Example 69] | 
26 | 430 | Cc1cccc(C)c1NC(=O)CN1CCN(CCCC(c2ccc(F)cc2)c2ccc(F)cc2)CC1 [Lidoflazine, reference compound] | 
27 | 4.2 | Fc1ccc(C(CCCN2CCC(CCOc3ccc(C(F)(F)F)cc3)CC2)c2ccc(F)cc2)cc1 [Example 71] | 
28 | 70 | CN(C)S(=O)(=O)c1ccc(OCCN2CCN(CCCC(c3ccc(F)cc3)c3ccc(F)cc3)CC2)cc1 [Example 83] | 
29 | 3.6 | Fc1ccc(C(CCCN2CCN(CCOc3ccc(Br)cc3)CC2)c2ccc(F)cc2)cc1 [Example 81] | 
